Measurements: PMC3261798, “Design, Synthesis, and Biological Evaluation of PKD Inhibitors” (Pharmaceutics, 2011)
One block for each molecule: values may come before it.

Tests used:
[1] = Stability in protic solvents; format: physicochemical; conditions: attributed to nucleophilic attack at C-4 of the pyrimidine
PKD1 [2] = molecular target: T1, PKD1 (Homo sapiens, UniProt Q15139); assay: In vitro radiometric PKD kinase activity assay; format: biochemical; design: purchased Biomol International; conditions: for inhibitory activity against PKD (in words): preliminary biological data for kmg-NB5-13 and kmg-NB5-15; for fold improvement in PKD1 potency over CID755673: relative to parent CID755673
T1 sequence (Q15139 1-912): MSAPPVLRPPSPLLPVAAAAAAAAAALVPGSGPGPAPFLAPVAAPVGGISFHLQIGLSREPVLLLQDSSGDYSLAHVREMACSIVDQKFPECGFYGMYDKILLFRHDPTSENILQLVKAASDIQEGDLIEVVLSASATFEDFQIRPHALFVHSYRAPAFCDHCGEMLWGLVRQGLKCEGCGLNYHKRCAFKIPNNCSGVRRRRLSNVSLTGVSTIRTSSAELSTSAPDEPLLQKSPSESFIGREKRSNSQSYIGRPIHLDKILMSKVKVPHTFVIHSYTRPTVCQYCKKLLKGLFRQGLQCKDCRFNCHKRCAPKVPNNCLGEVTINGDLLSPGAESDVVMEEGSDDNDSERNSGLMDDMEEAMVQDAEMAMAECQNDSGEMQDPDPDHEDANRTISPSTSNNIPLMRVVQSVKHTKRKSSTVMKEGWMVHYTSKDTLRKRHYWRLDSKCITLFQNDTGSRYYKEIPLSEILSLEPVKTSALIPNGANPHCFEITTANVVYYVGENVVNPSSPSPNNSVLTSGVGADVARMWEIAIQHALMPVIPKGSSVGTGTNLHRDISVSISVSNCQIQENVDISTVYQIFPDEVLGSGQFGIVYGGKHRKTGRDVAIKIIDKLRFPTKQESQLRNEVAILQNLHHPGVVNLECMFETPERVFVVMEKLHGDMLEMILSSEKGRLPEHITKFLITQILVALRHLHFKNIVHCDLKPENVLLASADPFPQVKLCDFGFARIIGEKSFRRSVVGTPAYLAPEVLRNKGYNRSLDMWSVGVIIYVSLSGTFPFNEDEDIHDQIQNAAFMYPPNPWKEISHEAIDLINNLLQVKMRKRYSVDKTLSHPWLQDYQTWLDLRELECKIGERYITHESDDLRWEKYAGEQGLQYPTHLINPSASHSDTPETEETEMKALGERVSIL
Description: In vitro radiometric PKD kinase assays were conducted as previously described. Briefly, 50 ng recombinant human PKD1 (Biomol International, Plymouth Meeting, PA, USA) was incubated at 30 °C for 10 min with a reaction mixture containing 2.5 μg syntide-2 (Sigma), 70 μM ATP, and 1 μCi γ-^32 P-ATP (PerkinElmer, Boston, MA, USA) in kinase buffer (50 mM Tris-HCl pH 7.5, […], and 10 mM […]). 25 μL of the reaction mixture was then spotted on Whatman P81 filter paper (Whatman Inc., Clifton, NJ, USA), and filter papers were washed three times with 0.5% phosphoric acid, dried, then counted using a Beckman LS6500 multi-purpose scintillation counter.

all PKD isoforms = conditions: cited from earlier work
PKD1 [3] = molecular target: T1, PKD1; assay: Cellular PKD1 inhibition: densitometry of Western blots for PKD1 autophosphorylation at S916 in PMA-stimulated LNCaP cells; format: cell-based; conditions: for EC50: PMA-induced autophosphorylation of endogenous PKD1 in LNCaP prostate cancer cells; for fold improvement in cellular activity over CID755673: cellular EC50 relative to CID755673
Description: Inhibition of PKD 1 in cells was determined by densitometry analysis of Western blotting data for PKD1 autophosphorylation at Ser^916 in LNCaP cells as previously described. LNCaP cells were pre-treated with PKD inhibitors for 45 min at various concentrations, and then stimulated with 10 nM phorbol 12-myristate 13-acetate (PMA) for 20 min. Cells were then collected and lysed in lysis buffer containing 200 mM Tris-HCl, pH 7.4, 100 μM 4-(2-aminoethyl) benzenesulfonyl fluoride, 1 mM EGTA, and 1% Triton X-100. Cell lysates were probed by Western blot analysis using primary antibodies targeting p-S916-PKD1 (Millipore), PKD1 (Cell Signaling Technology), or GAPDH. Densitometry analysis of visualized bands was used to determine the cellular IC50 values for PKD1 inhibition.

[4] = Preliminary in vivo studies (plasma half-life, metabolism; data not shown); conditions: for plasma half-life: preliminary in vivo studies, data not shown
Aqueous solubility = format: physicochemical; conditions: aqueous medium with lipophilic solubilizing agents; even in the presence of lipophilic solubilizing agents
PKD1 [5] = molecular target: T1, PKD1; assay: % PKD1 activity at 1 μM (single concentration; assay format not stated); format: biochemical; conditions: compound at 1 μM
PKD1 [6] = molecular target: T1, PKD1; assay: IMAP-based PKD Fluorescence Polarization (FP) assay, automated HTS format; format: biochemical; conditions: mean ± SEM, n = number of independent experiments
Description: An automated, HTS formatted IMAP-based PKD Fluorescence Polarization (FP) assay was used to assess the specificity of the PKD analogs as previously described. […] Kinase reactions were incubated for 90 min at room temperature and stopped by the addition of IMAP binding reagent. Assay plates were then incubated for 2 h and IMAP-based FP data were captured on a Molecular Devices Spectra-Max M5 (Sunnyvale, CA, USA).

[7] = mean ± SEM, n = number of independent experiments, read-out: IC50 Radiometric PKD1
[8] = PKD1 autophosphorylation at S916 in LNCaP cells, mean ± SEM

- IC50 (PKD1 [2]; [7]): 25300 nM
- inhibitory activity against PKD (in words) (PKD1 [2]): only weak inhibitory effect
Compound: O=C1NCCSc2c1sc1cnc(O)nc21 [kmg-NB4-69A, 2-Hydroxy-7H,8H,9H-1,4-thiazepino[7′,6′-5,4]thiopheno[3,2-d]pyrimidin-6-one]
- stability in protic solvents [1]: spontaneously degrades in protic solvents

Compound: C[C@H](C#N)Nc1cccc(-c2cc(-c3ccc(CNC4CCOCC4)cc3)on2)c1 [Compound 2b]
- IC50s, all PKD isoforms (all PKD isoforms): low nanomolar
- fold preference for PKD1 versus PKD2 (all PKD isoforms): 9 fold
- fold preference for PKD1 versus PKD3 (all PKD isoforms): 3 fold

Compound: COc1ccc2sc3c(c2c1)SCCNC3=O [kb-NB165-09, 3,4-Dihydro-9-methoxy-[1]benzothieno[2,3-f]-1,4-thiazepin-5(2H)-one]
- IC50 (PKD1 [3]; [8]): 3130 ± 540 nM
- EC50 (PKD1 [3]): 3100 nM
- fold improvement in cellular activity over CID755673 (PKD1 [3]): ca. 5 fold
- plasma half-life [4]: short
- IC50 (PKD1 [2]; [7]): 80 ± 10 nM
- fold improvement in PKD1 potency over CID755673 (PKD1 [2]): ca. 7 fold

- IC50 (PKD1 [3]; [8]): 6800 ± 1300 nM
- solubility (Aqueous solubility): < 400 µg/mL
- melting point: 308 °C (dec.)
- IC50 (PKD1 [2]; in vitro, read-out: PKD1 IC50): 124 nM
- IC50 (PKD1 [2]; [7]): 120 ± 30 nM
- inhibitory activity against PKD (in words) (PKD1 [2]): potent nanomolar inhibitor
Compound: COc1ncc2sc3c(c2n1)SCCNC3=O [kmg-NB4-23, 2-Methoxy-7H,8H,9H-1,4-thiazepino [7′,6′-5,4]thiopheno[3,2-d]pyrimidin-6-one]

Compound: O=C1NCCCSc2c1sc1ccc(O)cc21 [kb-NB165-92, 2,3,4,5-Tetrahydro-10-hydroxybenzo[b]thieno[2,3-f]-1,5-thiazocin-6-one]
- IC50 (PKD1 [3]; [8]): 2560 ± 660 nM
- remaining activity at 1 µM (PKD1 [5]): 16.7%
- IC50 (PKD1 [2]; [7]): 110 ± 10 nM

Compound: NC(=O)c1cc(-c2ccnc(NC3CCCCC3)c2)nc(N2CCNCC2)c1 [BPKDi]
- IC50 values, all three isoforms of PKD (all PKD isoforms): single digit nanomolar

Compound: O=C1NCCSc2c1sc1ccc(O)c(I)c21 [kb-NB165-31, 3,4-Dihydro-9-hydroxy-10-iodo-[1]benzothieno[2,3-f]-1,4-thiazepin-5(2H)-one]
- fold lower cellular activity than kb-NB142-70 (PKD1 [3]; relative to kb-NB142-70): 4 fold
- remaining activity at 1 µM (PKD1 [5]): 13.6%
- melting point: 128 °C (dec.)
- IC50 (PKD1 [2]; in vitro, read-out: PKD1 IC50): 114 nM
- IC50 (PKD1 [2]; [7]): 110 ± 20 nM

Compound: O=C1NCCSc2c1sc1ccc(O)cc21 [kb-NB142-70, 3,4-Dihydro-9-hydroxy-[1]benzothieno[2,3-f]-1,4-thiazepin-5(2H)-one]
- IC50 (PKD1 [6]): 710 ± 20 nM
- IC50 (PKD1 [3]; [8]): 2220 ± 590 nM
- EC50 (PKD1 [3]): 2200 nM
- fold improvement in cellular activity over CID755673 (PKD1 [3]): ca. 5 fold
- plasma half-life [4]: short
- major metabolic pathway ([4]; preliminary results from an animal model): glucuronidation of kb-NB142-70 at the phenolic position to be a major metabolic pathway
- IC50 (PKD1 [2]; [7]): 28 ± 2 nM
- fold improvement in PKD1 potency over CID755673 (PKD1 [2]): ~7 fold

Compound: O=C1NCCCc2c1oc1ccc(O)cc21 [CID755673, 7-Hydroxy-2,3,4,5-tetrahydro-[1]benzoxolo[2,3-c]azepin-1-one]
- IC50 (PKD1 [6]): 640 ± 30 nM
- IC50 (PKD1 [3]; [8]): 11800 ± 4000 nM
- EC50 (PKD1 [3]): 11800 nM
- IC50 (all PKD isoforms): 200 to 300 nM
- IC50 (PKD1 [2]; [7]): 180 ± 20 nM

- IC50 (PKD1 [6]): 2140 ± 120 nM
- IC50 Cellular PKD1 (PKD1 [3]; [8]): no significant cellular activity
- IC50 (PKD1 [2]; [7]): 130 ± 10 nM
Compound: O=C1NCCCc2c1[nH]c1ccc(O)cc21 [kb-NB123-57, 3,4,5,10-Tetrahydro-7-hydroxy-azepino[3,4-b]indol-1(2H)-one]

Compound: CC[C@@H](N)CNc1ccnc(-c2cc(-c3cnn(C)c3)ccc2O)n1.Cl.Cl [CRT0066101]
- IC50s, all isoforms of PKD (all PKD isoforms): single-digit nanomolar
